Measurements as given in a compilation of properties of binary mixtures (doi:10.1021/je100113r).

Assay: xn = mol fraction of the nth substance listed
Details: 300 K, 101 kPa

Compound	electrical conductivity (x2 = 0.198)	electrical conductivity (x2 = 0.498)	electrical conductivity (x2 = 0.598)	electrical conductivity (x2 = 0.503)	electrical conductivity (x2 = 0.603)	electrical conductivity (x2 = 0.201)	electrical conductivity (x2 = 0.302)	electrical conductivity (x2 = 0.502)	electrical conductivity (x2 = 0.802)
CCCCCCCCCCCCCCCC[P+](c1ccccc1)(c1ccccc1)c1ccccc1.[Br-] + O	0.0003 S/m	0.0003 S/m	0.0004 S/m	–	–	–	–	–	–
[Br-].[PH3+]CCCCCCCCCCCCCC(c1ccccc1)(c1ccccc1)c1ccccc1 + O	–	–	–	0.002 S/m	0.0006 S/m	–	–	–	–
CCCCCCCCCCCCCCCC[P+](CCCC)(CCCC)CCCC.[Br-] + O	–	–	–	–	0.0004 S/m	0.0004 S/m	0.0004 S/m	0.0004 S/m	0.0004 S/m
